Results published in patent US9267122B2, “Modulation of phospholipase D for the treatment of neurodegenerative disorders” (THE TRUSTEES OF COLUMBIA UNIVERSITY IN THE CITY OF NEW YORK, priority 2009, dated 2016).
pIC50: −log10 of the molar value. “Also recorded” adds a separate entry of the source.

Columns and labels:
[1] = test system: N2a cells expressing swAPP; assay: Aβ secretion by N2a cells expressing swAPP (ELISA); format: cell-based
Method: N2a cells expressing swAPP after reaching confluence, were replaced with new media and treated either with vehicle (black) or FIPI (gray) for 6 hours. The media was collected and both Aβ40 (A) and Aβ42 (B) were measured by ELISA. n=6.

primary cortical neurons = assay: Rescue of oAβ42-induced decrease in PIP2 levels in primary cortical neuronal cultures; format: cell-based, mice; settings: 750 nM FIPI pretreatment for 1 hour, then 200 nM oAβ42 for 2 hours; n=3
PLD1 = biological target: T1, PLD1 (Homo sapiens, UniProt Q13393); settings: PLD1 versus PLD2; cited from earlier work
T1 sequence (Q13393 1-1074): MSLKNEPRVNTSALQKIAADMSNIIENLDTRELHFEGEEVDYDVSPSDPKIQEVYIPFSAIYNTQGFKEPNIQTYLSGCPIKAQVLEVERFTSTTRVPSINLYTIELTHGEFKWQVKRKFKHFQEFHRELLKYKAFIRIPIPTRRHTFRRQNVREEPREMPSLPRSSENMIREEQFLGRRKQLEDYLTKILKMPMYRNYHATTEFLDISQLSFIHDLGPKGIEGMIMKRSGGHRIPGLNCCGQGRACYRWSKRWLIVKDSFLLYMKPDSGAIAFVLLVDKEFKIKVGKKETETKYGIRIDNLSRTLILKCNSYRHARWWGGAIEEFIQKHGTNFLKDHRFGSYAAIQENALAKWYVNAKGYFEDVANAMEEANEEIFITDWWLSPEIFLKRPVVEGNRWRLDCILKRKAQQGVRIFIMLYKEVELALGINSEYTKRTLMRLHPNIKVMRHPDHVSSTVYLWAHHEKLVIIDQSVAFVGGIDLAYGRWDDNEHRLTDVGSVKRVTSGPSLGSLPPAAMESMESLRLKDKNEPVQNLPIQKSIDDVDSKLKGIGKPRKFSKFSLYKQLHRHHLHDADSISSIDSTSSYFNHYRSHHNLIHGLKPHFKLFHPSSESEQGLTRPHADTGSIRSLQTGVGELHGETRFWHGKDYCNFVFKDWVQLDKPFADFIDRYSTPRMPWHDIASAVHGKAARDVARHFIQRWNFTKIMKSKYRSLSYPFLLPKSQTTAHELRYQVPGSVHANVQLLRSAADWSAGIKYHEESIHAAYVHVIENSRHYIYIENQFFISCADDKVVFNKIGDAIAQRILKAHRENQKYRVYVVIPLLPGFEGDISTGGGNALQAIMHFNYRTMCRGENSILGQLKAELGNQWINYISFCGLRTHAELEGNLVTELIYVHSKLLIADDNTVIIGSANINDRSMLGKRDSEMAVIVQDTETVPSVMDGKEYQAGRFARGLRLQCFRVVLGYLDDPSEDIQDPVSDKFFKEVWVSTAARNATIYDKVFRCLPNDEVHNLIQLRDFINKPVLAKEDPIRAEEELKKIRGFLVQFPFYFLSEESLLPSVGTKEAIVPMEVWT

293-PLD2 = settings: cited from earlier work
Calu-1 = settings: cited from earlier work

| SMILES | secreted Aβ42 ([1]; N2A cells expressing swAPP treated with FIPI, 6 hours, ELISA of media) | production of Aβ (Aβ40 and Aβ42) ([1]; N2a swAPP cells, FIPI versus vehicle for 6 hours, ELISA, n=6) | PIP2 levels after oAβ42 (primary cortical neurons) | PLD isoform selectivity (PLD1) | pIC50 (293-PLD2) | pIC50 (Calu-1) |
| --- | --- | --- | --- | --- | --- | --- |
| O=C(NCCN1CCC(n2c(=O)[nH]c3ccccc32)CC1)c1cc2cc(F)ccc2[nH]1 [FIPI, 5-Fluoro-2-indolyl des-chlorohalopemide] | secrete lower amounts of Aβ42 | decrease production of Aβ | partially rescues oAβ42 induced decrease in PIP2 levels; also recorded: partially rescue PIP2 deficiency | blocks both PLD1 and PLD2 |  |  |
| O=C(NCCN1CCC2(CC1)C(=O)NCN2c1ccccc1)c1cnc2ccccc2c1 [compound 9b, N-(2-(4-oxo-1-phenyl-1,3,8-triazaspiro[4,5]decan-8-yl)ethyl)quinoline-3-carboxamide] |  |  |  |  | 7.05 | 5.72 |
| C[C@@H](CN1CCC(n2c(=O)[nH]c3cc(Br)ccc32)CC1)NC(=O)[C@@H]1C[C@H]1c1ccccc1 [compound 13r, (1R,2R)—N—((S)-1-(4-(5-bromo-2-oxo-2,3-dihydro-1H-benzo[d]imidazol-1-yl)piperidin-1-yl)propan-2-yl)-2-phenylcyclopropanecarboxamide] |  |  |  |  |  | 8.43 |
